{
  "source": "patent US7498292B2",
  "about": "“Combinatorial libraries of autoinducer analogs, autoinducer agonists and antagonists, and methods of use thereof” (The Research Foundation of State University of New York, priority 2002, dated 2009)",
  "key": {"[1]": {"system": "Elastase B", "test": "elastase (Elastin Congo Red) assay, wild type strain PAO1", "format": "cell-based, P. aeruginosa PAO1", "settings": "wild type PAO1, 100 μM compound", "protocol": "Pyocyanin, elastase, and biofilm were assayed as previously described (Smith et al., Chem. Biol. 10:81-89 (2003), which is hereby incorporated by reference in its entirety). Elastase activity produced by P. aeruginosa in the presence of AIs and competing 3-oxo-C12-D10 was determined by measuring breakdown of the substrate Elastin Congo Red.\nFor the elastase B assay, cells (PAO-JP2) were grown overnight in PTSB media (5% Peptone, 0.1% Tryptic Soy Broth) at 37° C., washed and diluted to an OD600 of 0.05, grown to mid-log phase, washed again, and re-suspended to an OD600 of 0.05. The culture was then added to test tubes containing test compound(s) and grown for 6 hours. Elastase B activity was quantified by incubation of 100 μl of filtered culture supernatant with 5 mg Elastin Congo Red substrate and 1 ml of 10 mM Tris pH 7.2, 1 mM CaCl2 for 6 hours at 37° C. with agitation. Elastase B activity is represented by the OD495 of the enzyme assay following reaction quenching with EDTA and centrifugation to remove unreacted substrate, divided by the OD600 of the cell culture. The same assay was run with strain PAO-1, however no exogenous autoinducers were added."}, "[2]": {"molecular_target": "T1, LasR (Pseudomonas aeruginosa, UniProt P25084)", "T1 construct": "endogenous in cells; host or cells: P. aeruginosa PAO-JP2 (lasI, rhlI) harboring plasI-LVAgfp", "T1 sequence (P25084 whole entry)": "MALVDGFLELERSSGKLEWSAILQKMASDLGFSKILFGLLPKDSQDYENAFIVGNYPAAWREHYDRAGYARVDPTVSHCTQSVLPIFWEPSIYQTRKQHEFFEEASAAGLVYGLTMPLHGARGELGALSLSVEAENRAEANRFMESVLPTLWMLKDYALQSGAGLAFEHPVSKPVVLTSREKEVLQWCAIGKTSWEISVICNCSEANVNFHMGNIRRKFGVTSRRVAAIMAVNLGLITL", "test": "lasI-gfp reporter agonist assay, PAO-JP2 (plasI-LVAgfp)", "format": "cell-based, P. aeruginosa", "settings": "PAO-JP2 (plasI-LVAgfp), compounds made in solution phase, increasing concentrations (1, 100, 400 μM)", "description": "Since this strain lacks the ability to produce natural AIs due to disruption of both AI synthase genes, activation of LasR relies on the addition of exogenous AI1. Expression of gfp (encoding green fluorescent protein) is under control of the LasR-AI1 inducible lasI promoter, allowing rapid screening for LasR agonists by measuring the level of GFP expression in their presence.\nP. aeruginosa strain PAO-JP2 (lasI, rhlI) (Rahme et al., Science 268:1899-1902 (1995), which is hereby incorporated by reference in its entirety) harboring plasI-LVAgfp (Pearson et al., Proc. Natl Acad. Sci. USA 91:197-201 (1994), which is hereby incorporated by reference in its entirety) was grown at 37° C. in LB with 300 μg/ml carbenicillin. For agonist assays, an overnight culture was diluted to an OD600 of 0.1 and transferred to wells of a 96-well plate on which test compounds had previously been added and dried. The final concentration of each analog tested was roughly 400 μM, although this is an overestimate due to purity issues. Cells were then incubated for 6 hours at 37° C. with vigorous shaking. GFP expression was detected with a Molecular Imager (BioRad) (488 nm excitation and 695 nm bandpass filter) and quantified with ImageQuant software. The OD600 of cultures was determined to normalize GFP expression to cell density.\n(§1) Reporter strains were grown overnight in LB plus 300 μg/ml carbenicillin at 37° C. and diluted to an OD600 of 0.1. Following an incubation of 1 hour, 200 μl of cell culture was added to individual wells of a 96 well plate containing appropriate amount of test compound(s). Plates were incubated for 6 hours and then scanned for fluorescence emission with a Molecular Imager (488 nm excitation and 695 nm bandpass filter). Fluorescence was quantified with ImageQuant software."}, "[3]": {"system": "PAO-JP2 (pTdK-GFP) biofilm", "test": "static biofilm assay, PAO-JP2 (pTdK-GFP)", "format": "cell-based, P. aeruginosa", "settings": "PAO-JP2 (pTdK-GFP) with exogenous AIs, 24-hour static assay", "protocol": "(§2) Compound 3 was tested for its effect on biofilm development in a 24-hour assay that looks at the early stages of biofilm formation. […] Cultures were grown at 37° C. with shaking for 30 minutes, and then allowed to sit at 37° C. for an additional 23.5 hours. Coverslips were then rinsed and placed on slides for visualization using an MRC1024 Laser Scanning Microscope (BioRad) with a Nikon Fluor-60X oil emersion objective lens (NA=1.4), 488 nm Argon Laser and OG515 filter."}, "[4]": {"system": "RhlR", "test": "rhlI-gfp reporter antagonist assay, PAO-JP2 (prhlI-LVAgfp)", "format": "cell-based, P. aeruginosa", "settings": "50 μM compound, competing against 1 μM AI1 and 10 μM AI2", "protocol": "Each compound in the library was tested for antagonist activity using the same reporter strain, PAO-JP2 (plasI-LVAgfp) (de Kievit et al., Appl. Environ. Microbiol. 67:865-1873 (2001), which is hereby incorporated by reference in its entirety) to find compounds that could compete against AI1 and reduce GFP expression. The methods were the same as described in Example 2 (GFP Reporter Assay), except that 1 μM AI1 was added to each well in combination with the library compound. The fluorescence/OD600 of each compound competing against AI1 was reported relative to the fluorescence/OD600 of the positive control of AI1 alone, which was set to 1. When strain PAO-JP2 (prhlI-LVAgfp) was used, the positive control was 1 μM AI1 and 10 μM AI2.\n3- oxo-C12-D10 was synthesized in solution phase, where the natural side chain was coupled with D10 and purified by chromatography. To determine if the same structural motif can be applied to inhibition of the RhlR-AI2 interaction, C4-D10 was also synthesized. Assays were performed with both the lasI-gfp reporter PAO-JP2 (plasI-LVAgfp) and an RhlR-AI2 controlled rhlI-gfp reporter, PAO-JP2 (prhlI-LVAgfp) (FIGS. 10A-C) (de Kievit et al., Appl. Environ. Microbiol. 67:865-1873 (2001), which is hereby incorporated by reference in its entirety).\nas §1\nNext the ability of 2 and 3 to inhibit the rhlI-gfp reporter strain PAO-JP2 (prhlI-LVAgfp) was tested, since this expression is also AI1-dependent."}, "[5]": {"system": "lac promoter", "test": "GFP expression from lac promoter, PAO-JP2 (pTdK-GFP) (specificity control)", "format": "cell-based, P. aeruginosa", "settings": "lasI promoter replaced with a lac promoter"}, "[6]": {"system": "pyocyanin", "test": "pyocyanin assay, wild type strain PAO1", "format": "cell-based, P. aeruginosa PAO1", "settings": "wild type PAO1, no AIs added", "protocol": "For the pyocyanin assay, cells were grown overnight in LB then washed in fresh media and diluted to an OD600 of 0.05. This culture was grown for 3-4 hours to mid-log phase (OD600 of 0.3-0.5), then diluted to an OD600 of 0.05, and aliquoted to test tubes containing an appropriate amount of test compound(s). Following 18 hours of growth, pyocyanin was extracted from filtered culture supernatants and quantified using standard methods (Essar et al., J. Bacteriol. 172:884-900 (1990), which is hereby incorporated by reference in its entirety)."}, "[7]": {"system": "PAO1 (pTdK-GFP) biofilm", "test": "static biofilm assay, PAO1 (pTdK-GFP)", "format": "cell-based, P. aeruginosa", "protocol": "as §2\nThe same assay was run with strain PAO-1 (pTdK-GFP), and no exogenous autoinducers were added. […] The above results provide additional evidence that compound 3 interferes with QS signaling and reduces the production of important virulence factors."}},
  "note": "Entries after “also recorded” stand apart in the source; their conditions may differ.",
  "data": [
    {"smiles": "CCCCCCCCCC(=O)CC(=O)NC1CCCCC1=O", "note": "(racemic) [Compound 3, N-(2-oxocyclohexyl)-3-oxododecanamide]", "values": [
      {"measurement": "elastase activity, % of the control level", "setting": "[1]", "result": 30, "unit": "%"},
      {"measurement": "agonist activity (induction of lasI-gfp reporter)", "setting": "[2]", "result": "nearly unable to induce the reporter; also recorded: no agonist activity"},
      {"measurement": "effect on biofilm formation", "setting": "[3]", "result": "completely inhibited"},
      {"measurement": "inhibition of GFP expression (rhlI-gfp)", "setting": "[4]", "result": "greater than 60%"},
      {"measurement": "inhibition of GFP expression from lac promoter", "setting": "[5]", "result": "inability to inhibit GFP expression"},
      {"measurement": "effect on pyocyanin production", "setting": "[6]", "result": "very similar inhibitory effect"},
      {"measurement": "effect on biofilm morphology", "setting": "[7]; wild type PAO1", "result": "noticeable difference in biofilm morphology"},
      {"measurement": "effect on biofilm formation", "setting": "[7]; wild type PAO1, no exogenous autoinducers", "result": "less obvious"}
    ]}
  ]
}
